The target in experiment [1] is CDK2/Cyclin E1 (Homo sapiens (Human), UniProt P24941). Briefly: biochemical. The conditions noted are these: CDK2_Ki (nM), phosphorylated CDK2/Cyclin E1, 150 μM ATP, Morrison tight-binding fit.
Description: The assay was initiated with the addition of ATP, following a fifteen minutes pre-incubation of enzyme and inhibitor at room temperature in the reaction mixture. The reaction was stopped after 45 minutes at room temperature by the addition of 50 μL of 80 mM EDTA, pH 7.5.
The target of experiment [2] is CDK6/Cyclin D1 (Homo sapiens (Human), UniProt Q00534). Briefly: biochemical. To be noted: CDK6_Ki (nM), non-phosphorylated CDK6/Cyclin D1, 2 mM ATP, Morrison fit.
CDK6/Cyclin D1, sequence (Q00534 whole entry): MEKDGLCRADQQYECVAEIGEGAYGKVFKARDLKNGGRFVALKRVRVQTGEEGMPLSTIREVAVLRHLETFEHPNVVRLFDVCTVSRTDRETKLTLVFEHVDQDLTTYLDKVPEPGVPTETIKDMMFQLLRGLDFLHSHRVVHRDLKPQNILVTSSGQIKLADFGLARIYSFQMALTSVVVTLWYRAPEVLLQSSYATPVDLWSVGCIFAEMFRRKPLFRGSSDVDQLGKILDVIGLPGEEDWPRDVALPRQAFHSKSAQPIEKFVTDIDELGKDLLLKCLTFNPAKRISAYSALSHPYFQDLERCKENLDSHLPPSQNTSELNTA
CDK6/Cyclin D1, sequence (P24385 whole entry partner): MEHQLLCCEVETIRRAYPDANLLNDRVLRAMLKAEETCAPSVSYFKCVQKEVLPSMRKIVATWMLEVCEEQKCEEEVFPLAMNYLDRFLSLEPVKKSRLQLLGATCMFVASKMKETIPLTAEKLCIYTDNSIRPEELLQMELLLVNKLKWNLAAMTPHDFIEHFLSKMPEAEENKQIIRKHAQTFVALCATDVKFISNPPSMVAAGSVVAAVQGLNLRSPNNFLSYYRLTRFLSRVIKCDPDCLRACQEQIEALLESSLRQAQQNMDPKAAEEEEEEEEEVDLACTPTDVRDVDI

The term Ki denotes a measure of affinity in units of concentration, obtained from inhibition or displacement. In the case of `C[C@]1(O)CCC[C@@H]1n1c(=O)c(CCO)cc2cnc(NC3CCN(S(C)(=O)=O)CC3)nc21` (single isomer, unassigned) [Example 123, (+)-6-(2-hydroxyethyl)-8-[(1R*,2R*)-2-hydroxy-2-methylcyclopentyl]-2-{[1-(methylsulfonyl)piperidin-4-yl]amino}pyrido[2,3-d]pyrimidin-7(8H)-one], the inhibition constant (Ki) in experiment [1] was 0.76 nM; in experiment [2], 6.14 nM.

In the case of `CNS(=O)(=O)N1CCC(Nc2ncc3cc(F)c(=O)n([C@@H]4CCC[C@@]4(C)O)c3n2)CC1` (single isomer, unassigned) [Example 124, (−)-4-({6-fluoro-8-[(1R*,2R*)-2-hydroxy-2-methylcyclopentyl]-7-oxo-7,8-dihydropyrido[2,3-d]pyrimidin-2-yl}amino)-N-methylpiperidine-1-sulfonamide], the Ki in experiment [1] worked out at 0.69 nM; in experiment [2], 3.84 nM.

`CNS(=O)(=O)N1CCC(Nc2ncc3cc(F)c(=O)n([C@H]4CCC[C@]4(C)O)c3n2)CC1` (single isomer, unassigned) [Example 125, (+)-4-({6-fluoro-8-[(1R*,2R*)-2-hydroxy-2-methylcyclopentyl]-7-oxo-7,8-dihydropyrido[2,3-d]pyrimidin-2-yl}amino)-N-methylpiperidine-1-sulfonamide]: the inhibitory constant (Ki) in experiment [1] was found to be 6.21 nM; in experiment [2], 36.6 nM.

Take `CNS(=O)(=O)N1CCC(Nc2ncc3cc(Cl)c(=O)n([C@@H]4CCC[C@@]4(C)O)c3n2)CC1` (single isomer, unassigned) [Example 126, (−)-4-({6-chloro-8-[(1R*,2R*)-2-hydroxy-2-methylcyclopentyl]-7-oxo-7,8-dihydropyrido[2,3-d]pyrimidin-2-yl}amino)-N-methylpiperidine-1-sulfonamide]: the inhibition constant Ki turned out to be 0.2 nM in experiment [1] and 0.96 nM in experiment [2].

As to `CNS(=O)(=O)N1CCC(Nc2ncc3cc(Cl)c(=O)n([C@H]4CCC[C@]4(C)O)c3n2)CC1` (single isomer, unassigned) [Example 127, (+)-4-({6-chloro-8-[(1R*,2R*)-2-hydroxy-2-methylcyclopentyl]-7-oxo-7,8-dihydropyrido[2,3-d]pyrimidin-2-yl}amino)-N-methylpiperidine-1-sulfonamide], the values for the Ki in experiment [1] and in experiment [2] were 3.46 nM and 12.6 nM, respectively.

As to `C[C@@]1(O)CCC[C@H]1n1c(=O)c(Cl)cc2cnc(NC3CCN(S(N)(=O)=O)CC3)nc21` (single isomer, unassigned) [Example 128, (−)-4-({6-chloro-8-[(1R*,2R*)-2-hydroxy-2-methylcyclopentyl]-7-oxo-7,8-dihydropyrido[2,3-d]pyrimidin-2-yl}amino)piperidine-1-sulfonamide], the Ki in experiment [1] is 0.12 nM; in experiment [2], 0.53 nM.

`C[C@]1(O)CCC[C@@H]1n1c(=O)c(Cl)cc2cnc(NC3CCN(S(N)(=O)=O)CC3)nc21` (single isomer, unassigned) [Example 129, (+)-4-({6-chloro-8-[(1R*,2R*)-2-hydroxy-2-methylcyclopentyl]-7-oxo-7,8-dihydropyrido[2,3-d]pyrimidin-2-yl}amino)piperidine-1-sulfonamide]: the Ki is 1.47 nM in experiment [1] and 5.73 nM in experiment [2].

Consider `CNS(=O)(=O)N1CCC(Nc2ncc3cc(C(F)F)c(=O)n([C@@H]4CCC[C@@]4(C)O)c3n2)CC1` (single isomer, unassigned) [Example 130, (−)-4-({6-(difluoromethyl)-8-[(1R*,2R*)-2-hydroxy-2-methylcyclopentyl]-7-oxo-7,8-dihydropyrido[2,3-d]pyrimidin-2-yl}amino)-N-methylpiperidine-1-sulfonamide], for which the inhibitory constant (Ki) came out at 0.17 nM in experiment [1] and 0.43 nM in experiment [2].

Take `CNS(=O)(=O)N1CCC(Nc2ncc3cc(C(F)F)c(=O)n([C@H]4CCC[C@]4(C)O)c3n2)CC1` (single isomer, unassigned) [Example 131, (+)-4-({6-(difluoromethyl)-8-[(1R*,2R*)-2-hydroxy-2-methylcyclopentyl]-7-oxo-7,8-dihydropyrido[2,3-d]pyrimidin-2-yl}amino)-N-methylpiperidine-1-sulfonamide]: the Ki stood at 3.24 nM in experiment [1] and 23.1 nM in experiment [2].

For the molecule `CS(=O)(=O)N1CCC(Nc2ncc3cc(C(F)F)c(=O)n([C@@H]4CC[C@@H](O)C4)c3n2)CC1` (single isomer, unassigned) [Example 133, (−)-6-(difluoromethyl)-8-[(1R*,3R*)-3-hydroxycyclopentyl]-2-{[1-(methylsulfonyl)piperidin-4-yl]amino}pyrido[2,3-d]pyrimidin-7(8H)-one], the inhibition constant Ki in experiment [1] was 2.37 nM; in experiment [2] it was 0.94 nM.

As to `CS(=O)(=O)N1CC[C@H](Nc2ncc3cc(CCO)c(=O)n(C4CCCC4)c3n2)[C@@H](F)C1` (single isomer, unassigned) [Example 156, (−)-8-cyclopentyl-2-{[(3S*,4S*)-3-fluoro-1-(methylsulfonyl)piperidin-4-yl]amino}-6-(2-hydroxyethyl)pyrido[2,3-d]pyrimidin-7(8H)-one], the figures for the Ki in experiment [1] and in experiment [2] were 1.4 nM and 1.94 nM, respectively.

With `COCCc1cc2cnc(N[C@H]3CCN(S(C)(=O)=O)C[C@@H]3F)nc2n(C2CCCC2)c1=O` (single isomer, unassigned) [Example 158, (−)-8-cyclopentyl-2-{[(3S*,4S*)-3-fluoro-1-(methylsulfonyl)piperidin-4-yl]amino}-6-(2-methoxyethyl)pyrido[2,3-d]pyrimidin-7(8H)-one], the inhibitory constant (Ki) worked out at 3.89 nM in experiment [1] and 0.66 nM in experiment [2].

For the molecule `CS(=O)(=O)N1CC[C@H](Nc2ncc3cc(CC(N)=O)c(=O)n(C4CCCC4)c3n2)[C@@H](F)C1` (single isomer, unassigned) [Example 160, (−)-2-(8-cyclopentyl-2-{[(3S*,4S*)-3-fluoro-1-(methylsulfonyl)piperidin-4-yl]amino}-7-oxo-7,8-dihydropyrido[2,3-d]pyrimidin-6-yl)acetamide], the Ki in experiment [1] came to 4.07 nM; in experiment [2], 3.55 nM.

With `Cc1cc2cnc(NC3CCN(S(C)(=O)=O)CC3)nc2n([C@@H]2CC[C@@H](O)C2)c1=O` (single isomer, unassigned) [Example 167, (−)-8-[(1R*,3R*)-3-hydroxycyclopentyl]-6-methyl-2-{[1-(methylsulfonyl)piperidin-4-yl]amino}pyrido[2,3-d]pyrimidin-7(8H)-one], the figures for the Ki in experiment [1] and in experiment [2] were 1.47 nM and 1.63 nM, respectively.

On to `Cc1cc2cnc(NC3CCN(S(C)(=O)=O)CC3)nc2n([C@H]2CC[C@H](O)C2)c1=O` (single isomer, unassigned) [Example 168, (+)-8-[(1R*,3R*)-3-hydroxycyclopentyl]-6-methyl-2-{[1-(methylsulfonyl)piperidin-4-yl]amino}pyrido[2,3-d]pyrimidin-7(8H)-one], for which the Ki in experiment [1] is 1.31 nM; in experiment [2], 1.34 nM.

`CS(=O)(=O)N1CCC(Nc2ncc3cc(Cl)c(=O)n([C@H]4CC[C@H](O)C4)c3n2)CC1` (single isomer, unassigned) [Example 169, (+)-6-chloro-8-[(1R*,3R*)-3-hydroxycyclopentyl]-2-{[1-(methylsulfonyl)piperidin-4-yl]amino}pyrido[2,3-d]pyrimidin-7(8H)-one]: the values for the inhibition constant (Ki) in experiment [1] and in experiment [2] were 2.76 nM and 1.11 nM, respectively.

The record behind these values is patent US10233188B2, “CDK2/4/6 inhibitors” (priority 2016, dated 2019).
